The results in this text go back to PMC3132048, “Treatment of experimental adjuvant arthritis with a novel folate receptor-targeted folic acid-aminopterin conjugate” (Arthritis Research & Therapy, 2011).

Some results are limits rather than exact numbers.

In series [1] the target is T1, FRα (FRα-expressing KB cells) (Homo sapiens, UniProt P15328).
T1 construct: both KB cells and CHO-FRβ cells were used as the sources of FR; endogenous in cells; host or cells: KB cells
In words: Relative affinity assay: displacement of [3H]FA from KB cells. The series is classed as binding. As to conditions: 37°C, competitor of [3H]FA, inverse molar ratio to displace 50%. The procedure: The relative affinities of EC0746, AMT, and MTX were determined according to a previously established method except that both KB cells and CHO-FRβ cells were used as the sources of FR [33]. KB cells are a human cancer cell line known for elevated expression of FRα. CHO-FRβ cells were obtained from Manohar Ratnam, Department of Biochemistry and Cancer Biology, The University of Toledo (Toledo, OH, USA). This cell line was originally generated by stable integration and amplification of a human FRβ cDNA expression construct in CHO-K1 cells.

The subject of series [2] is TNFα production in RAW264.7 cells. Kind of series: LPS-stimulated TNFα production (ELISA). The series is classed as cell-based, murine. The procedure:
RAW264.7 cells in 96-well plates (3.5 × 10^4 cells/well) were treated with 10-fold serial dilutions of EC0746 (≤1 μM) in FFRPMI medium without and with 100-fold molar excess of FA. After a 2-hour exposure, the drug-containing media were replaced and the cells were allowed to incubate further for 70 hours (referred in the text as a 70-hour chase). In comparison, the cells were also treated continuously with AMT for 72 hours. Four hours prior to the end of incubation, LPS was added to the treated cells at a final concentration of 100 ng/ml. Then 100 μl culture supernatants were collected for TNFα analysis by ELISA. The cell viability was assessed by adding XTT to the remaining media for an additional 4 hours following the manufacturer's instructions. To evaluation of a cytostatic effect, RAW264.7 cells seeded at 1 × 10^6 cells/well in six-well plates were subjected to 2-hour exposure and a 70-hour chase with 0, 0.1, 10, and 1000 nM EC0746 without and with excess FA. At the end of the incubation (no LPS added), the surviving cells (that is, still viable cells) were recovered and redistributed in equal numbers in fresh medium for an additional 72 hours. The cell proliferation was again assessed by the XTT assay. All results were expressed as the percentage absorbance (minus background) relative to the untreated control cells.
(In general: ELISA stands for enzyme-linked immunosorbent assay.)

Series [3] has as its system rat TG-macs. Kind of series: Viability of thioglycollate-elicited peritoneal macrophages. The series is classed as cell-based. The settings on record: 72-hour incubation; no effect at concentrations as high as stated.
Experimental: Female Lewis rats (175 to 200 g) were purchased from Harlan Sprague Dawley (Indianapolis, IN, USA) and were allowed to acclimate for 1 week. To obtain peritoneal macrophages, rats were dosed intraperitoneally with an aged thioglycollate (TG) medium (20 ml/kg) and euthanized 3 days later. The peritoneal cavity of the animals was lavaged with 60 ml ice-cold phosphate-buffered saline to collect peritoneal exudate. The TG-elicited macrophages in the peritoneal fluids were obtained after a red cell lysing step and a 2-hour adherence in folate-free RPMI 1640 medium (Mediatech, Manassas, VA, USA) containing 1% heat-activated fetal calf serum and antibiotics. The purity of the resulting macrophage population (herein referred to as rat TG-macs) was determined to be ~90% pure based on CD11b/c expression (data not shown). […] Unless otherwise specified, all cells were maintained in the folate-free RPMI 1640 medium containing 10% heat-activated fetal calf serum and antibiotics (FFRPMI) under a 5% CO2 atmosphere.
Unlike RAW264.7 cells, rat TG-macs display little proliferative activity ex vivo and therefore were used in our studies to represent inflammatory macrophages in a low proliferative state. […] LPS (5 μg/ml) and IFNγ (100 ng/ml) were then added to the treated cells 24 hours prior to the end of incubation to stimulate the release of cytokines/chemokines, which were then detected with a rat cytokine antibody array.
Series [4] relates to cytokine/chemokine release by rat TG-macs. In words: Rat cytokine array analysis after LPS/IFNγ co-stimulation. The series is classed as cell-based. The settings on record: 100 nM, 2-hour pulse, 70-hour chase, LPS 5 μg/ml plus IFNγ 100 ng/ml last 24 hours. The procedure: This analysis was performed on rat TG-macs to compare EC0746 against AMT and MTX for their abilities to inhibit cytokine production after LPS/IFNγ co-stimulation. Using our standard condition of 2-hour pulse plus a 70-hour chase period, rat TG-macs (harvested the day before) were given vehicle (media only), EC0746 (100 nM), EC0746 (100 nM) plus 100-fold molar excess of FA (10 μM), or FA alone (10 μM). For unconjugated base drugs, 100 nM AMT and MTX were present continuously for the entire 72-hour incubation period. Twenty-four hours prior to the end of incubation, LPS (5 μg/ml) and IFNγ (100 ng/ml) were added to the cells to stimulate cytokine production. The presence of cytokines/chemokines in the culture media was detected using a rat cytokine antibody array kit (R&D Systems) capable of detecting 29 analytes in duplicate spots. The total pixel intensity for each spot in the array was quantitated using the NIH ImageJ software, subtracted from the background, and averaged for each analyte.

Series [5] can be described thus: Plasma pharmacokinetics after single subcutaneous dose. The series is classed as in vivo, rat. As to the method:
Female Lewis rats with jugular vein catheters (Harlan Sprague Dawley) were used to assess the plasma pharmacokinetics of EC0746 and unconjugated AMT. The animals were divided into two main groups, one given a single dose of EC0746 s.c. and the second a single dose of AMT s.c., both at 500 nmol/kg. Whole blood samples (300 μl) were collected from three animals per time point at the following time points: 1 minute, 10 minutes, 30 minutes, 1 hour, 2 hours, 3 hours, 4 hours, and 8 hours after injection. The blood samples were placed into anticoagulant tubes containing 1.7 mg/ml K3EDTA and 0.35 mg/ml N-maleoyl-β-alanine (0.35 mg/ml) in a 0.15% acetic acid solution. Plasma samples were obtained by centrifugation for 3 minutes at ~2,000 × g and stored at -80°C. The amounts of EC0746 and AMT in the plasma and the two primary metabolites of EC0746 (AMT and AMT hydrazide) were determined by liquid chromatography/mass spectrometry/mass spectrometry.

T1 sequence (P15328 25-257): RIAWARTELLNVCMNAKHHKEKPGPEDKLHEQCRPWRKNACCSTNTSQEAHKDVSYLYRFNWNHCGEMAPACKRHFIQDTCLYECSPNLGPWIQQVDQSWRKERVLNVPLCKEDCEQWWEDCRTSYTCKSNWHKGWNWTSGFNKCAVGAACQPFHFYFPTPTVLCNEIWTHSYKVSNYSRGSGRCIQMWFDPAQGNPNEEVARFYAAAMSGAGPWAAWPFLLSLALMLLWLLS

For `Nc1nc(N)c2nc(CNc3ccc(C(=O)N[C@@H](CCC(=O)NNC(=O)OCCSSC[C@H](NC(=O)[C@H](CCC(=O)NC[C@H](O)[C@@H](O)[C@H](O)[C@H](O)CO)NC(=O)[C@H](CCC(=O)O)NC(=O)[C@H](CCC(=O)NC[C@H](O)[C@@H](O)[C@H](O)[C@H](O)CO)NC(=O)[C@H](CCC(=O)O)NC(=O)[C@H](CCC(=O)NC[C@H](O)[C@@H](O)[C@H](O)[C@H](O)CO)NC(=O)CC[C@H](NC(=O)c4ccc(NCc5cnc6nc(N)[nH]c(=O)c6n5)cc4)C(=O)O)C(=O)O)C(=O)O)cc3)cnc2n1` [EC0746], the “Relative affinity value (FA = 1)” value in series [1] came out at 0.50. In series [2] (2-hour pulse, 70-hour chase, LPS 100 ng/ml last 4 hours, read-out: Relative 50% inhibitory concentration, TNFα after LPS stimulation), the IC50 was ~1.6 nM. In addition, the “TNFα effect competitive by excess FA” value in series [2] (100-fold molar excess FA) came out at 100%. Further, in series [3], the “Concentration affecting TG-macs viability” value is > 10 µM. Further, the “Number of released cytokines/chemokines (of ~19) showing FR-specific inhibition” value in series [4] is 11. In addition, the “Active drug exposure/release (AMT plus AMT hydrazide) detected in plasma, based on AUC” value in series [5] (EC0746 500 nmol/kg s.c., 8-hour collection period) is ~ 18%. The “Area under the curve” value in series [5] (after single s.c. dose of EC0746 500 nmol/kg, 8-hour collection, analyte = label) was 32.5 nmol·min/mL. For the same compound, the Elimination half-life in series [5] (after single s.c. dose of EC0746 500 nmol/kg, analyte = label) is reported as ~ 35 minutes.
